Assay results reported in patent US12398120B2, “Substituted hydantoinamides as ADAMTS7 antagonists” (BAYER AKTIENGESELLSCHAFT, priority 2019, dated 2025).

What follows are compounds tested against ADAMTS4 (Homo sapiens (Human), UniProt O75173) (assay: Selectivity assay for ADAMTS-7 modulators: ADAMTS4 (FRET substrate)). Details: ADAMTS4 (R&D 4307-AD) 50 nM, substrate Dabcyl-EEVKAKVQPY-Glu(Edans)-NH2 1 μM, 120 min, 32° C.
Format: biochemical
How it was run: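 Human ADAMTS4 with compound in DMSO, or DMSO control; reaction started by adding FRET substrate in reaction buffer. Fluorescence increase measured at substrate-specific wavelengths. IC50 derived from % inhibition of enzyme activity versus compound concentration.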

Sequence of ADAMTS4 (O75173 213-685): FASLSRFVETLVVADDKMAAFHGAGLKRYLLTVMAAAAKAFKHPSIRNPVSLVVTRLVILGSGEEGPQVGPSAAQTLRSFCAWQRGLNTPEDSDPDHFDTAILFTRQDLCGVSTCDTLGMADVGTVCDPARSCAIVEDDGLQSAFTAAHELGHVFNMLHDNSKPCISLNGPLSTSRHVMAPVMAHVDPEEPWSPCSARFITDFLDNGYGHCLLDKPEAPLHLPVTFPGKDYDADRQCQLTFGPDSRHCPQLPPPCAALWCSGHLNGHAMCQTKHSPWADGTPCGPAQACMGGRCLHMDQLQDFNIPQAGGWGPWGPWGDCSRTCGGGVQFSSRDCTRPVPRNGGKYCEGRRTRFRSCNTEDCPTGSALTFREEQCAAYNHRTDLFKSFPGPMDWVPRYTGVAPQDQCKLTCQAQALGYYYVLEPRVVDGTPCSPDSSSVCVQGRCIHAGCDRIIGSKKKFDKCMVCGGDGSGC

SMILES	IC50
Cc1ccc(C(=O)NCC2(c3scnc3C)NC(=O)NC2=O)c(-c2ccc(C(F)(F)F)cc2)c1 (single isomer, unassigned; ent-5) [Example 8, Ent-5-Methyl-N-{[4-(4-Methyl-1,3-Thiazol-5-Yl)-2,5-Dioxoimidazolidin-4-Yl]Methyl}-4′-(Trifluoromethyl)[Biphenyl]-2-Carboxamide]	3.8 µM
Cc1ncsc1C1(CNC(=O)c2ccc(F)cc2-c2ccc(C(F)(F)F)cc2)NC(=O)NC1=O (single isomer, unassigned; ent-5) [Example 10, Ent-5-Fluoro-N-{[4-(4-Methyl-1,3-Thiazol-5-Yl)-2,5-Dioxoimidazolidin-4-Yl]Methyl}-4′-(Trifluoromethyl)[Biphenyl]-2-Carboxamide]	8.9 µM
Cn1ccnc1C1(CNC(=O)c2ccc(F)cc2-c2ccc(C(F)(F)F)cc2)NC(=O)NC1=O (single isomer, unassigned; ent-5) [Example 150, Ent-5-Fluoro-N-{[4-(1-Methyl-1H-Imidazol-2-Yl)-2,5-Dioxoimidazolidin-4-Yl]Methyl}-4′-(Trifluoromethyl)[Biphenyl]-2-Carboxamide]	1.85 µM
Cn1ccnc1C1(CNC(=O)c2ccc(Cl)cc2-c2ccc(C(F)(F)F)cc2)NC(=O)NC1=O (single isomer, unassigned; ent-5) [Example 161, Ent-5-Chloro-N-{[4-(1-Methyl-1H-Imidazol-2-Yl)-2,5-Dioxoimidazolidin-4-Yl]Methyl}-4′-(Trifluoromethyl)[Biphenyl]-2-Carboxamide]	0.728 µM
Cc1ccc(C(=O)NCC2(c3ncsc3C)NC(=O)NC2=O)c(-c2ccc(C(F)(F)F)cc2)c1 (single isomer, unassigned; ent-5) [Example 168, Ent-5-Methyl-N-{[4-(5-Methyl-1,3-Thiazol-4-Yl)-2,5-Dioxoimidazolidin-4-Yl]Methyl}-4′-(Trifluoromethyl)[Biphenyl]-2-Carboxamide]	1.9 µM
Cn1nccc1C1(CNC(=O)c2ccc(F)c(F)c2-c2ccc(C(F)(F)F)cc2)NC(=O)NC1=O (single isomer, unassigned; ent-5) [Example 191, Ent-5,6-Difluoro-N-{[4-(1-Methyl-1H-Pyrazol-5-Yl)-2,5-Dioxoimidazolidin-4-Yl]Methyl}-4′-(Trifluoromethyl)[Biphenyl]-2-Carboxamide]	6.48 µM
CC(C)C1(CNC(=O)c2ccc(F)cc2-c2ccc(C(F)(F)F)cc2)NC(=O)NC1=O (single isomer, unassigned; ent-5) [Example 207, Ent-5-Fluoro-N-[(4-Isopropyl-2,5-Dioxoimidazolidin-4-Yl)Methyl]-4′-(Trifluoromethyl)[Biphenyl]-2-Carboxamide]	> 50 µM
Cc1ccc(C(=O)NCC2(c3nccn3C)NC(=O)NC2=O)c(-c2ccc(C(F)(F)F)cc2)c1C (single isomer, unassigned; ent-5) [Example 287, Ent-5,6-Dimethyl-N-{[4-(1-Methyl-1H-Imidazol-2-Yl)-2,5-Dioxoimidazolidin-4-Yl]Methyl}-4′-(Trifluoromethyl)[Biphenyl]-2-Carboxamide]	0.16 µM
O=C1NC(=O)C(CNC(=O)c2ccc(F)c(F)c2-c2ccc(C(F)(F)F)cc2)(C2(F)CC2)N1 (single isomer, unassigned; ent-5) [Example 298, Ent-5,6-Difluoro-N-{[4-(1-Fluorocyclopropyl)-2,5-Dioxoimidazolidin-4-Yl]Methyl}-4′-(Trifluoromethyl)[Biphenyl]-2-Carboxamide]	9.3 µM

Other lines, results leading:

IC50	SMILES
3.5 µM	Cc1scnc1C1(CNC(=O)c2ccc(Cl)cc2-c2ccc(C(F)(F)F)cc2)NC(=O)NC1=O (single isomer, unassigned; ent-5) [Example 16, Ent-5-Chloro-N-{[4-(5-Methyl-1,3-Thiazol-4-Yl)-2,5-Dioxoimidazolidin-4-Yl]Methyl}-4′-(Trifluoromethyl)[Biphenyl]-2-Carboxamide]
2.1 µM	Cc1c(C2(CNC(=O)c3ccc(Cl)cc3-c3ccc(C(F)(F)F)cc3)NC(=O)NC2=O)cnn1C (single isomer, unassigned; ent-5) [Example 79, Ent-5-Chloro-N-{[4-(1,5-Dimethyl-1H-Pyrazol-4-Yl)-2,5-Dioxoimidazolidin-4-Yl]Methyl}-4′-(Trifluoromethyl)[Biphenyl]-2-Carboxamide]
1.02 µM	Cc1ccc(C(=O)NCC2(c3nccn3C)NC(=O)NC2=O)c(-c2ccc(C(F)(F)F)cc2)c1 (single isomer, unassigned; ent-5) [Example 151, Ent-5-Methyl-N-{[4-(1-Methyl-1H-Imidazol-2-Yl)-2,5-Dioxoimidazolidin-4-Yl]Methyl}-4′-(Trifluoromethyl)[Biphenyl]-2-Carboxamide]
0.51 µM	Cc1ccc(-c2cc(Cl)ccc2C(=O)NCC2(c3nccn3C)NC(=O)NC2=O)cc1 (single isomer, unassigned; ent-5) [Example 153, Ent-5-Chloro-4′-Methyl-N-{[4-(1-Methyl-1H-Imidazol-2-Yl)-2,5-Dioxoimidazolidin-4-Yl]Methyl}[Biphenyl]-2-Carboxamide]
9.37 µM	Cn1nccc1C1(CNC(=O)c2ccc(F)cc2-c2ccc(C(F)(F)F)cc2)NC(=O)NC1=O (single isomer, unassigned; ent-5) [Example 184, Ent-5-Fluoro-N-{[4-(1-Methyl-1H-Pyrazol-5-Yl)-2,5-Dioxoimidazolidin-4-Yl]Methyl}-4′-(Trifluoromethyl)[Biphenyl]-2-Carboxamide]
2.73 µM	Cn1nccc1C1(CNC(=O)c2ccc(Cl)cc2-c2ccc(C(F)(F)F)cc2)NC(=O)NC1=O (single isomer, unassigned; ent-5) [Example 188, Ent-5-Chloro-N-{[4-(1-Methyl-1H-Pyrazol-5-Yl)-2,5-Dioxoimidazolidin-4-Yl]Methyl}-4′-(Trifluoromethyl)[Biphenyl]-2-Carboxamide]
11 µM	O=C1NC(=O)C(CNC(=O)c2ccc(F)cc2-c2ccc(C(F)(F)F)cc2)(C2(F)CC2)N1 (single isomer, unassigned; ent-5) [Example 253, Ent-5-Fluoro-N-{[4-(1-Fluorocyclopropyl)-2,5-Dioxoimidazolidin-4-Yl]Methyl}-4′-(Trifluoromethyl)[Biphenyl]-2-Carboxamide]
9.5 µM	Cn1nccc1C1(CNC(=O)c2cc(F)ccc2-c2ccc(C(F)(F)F)nc2)NC(=O)NC1=O (single isomer, unassigned; ent-5) [Example 292, Ent-5-Fluoro-N-{[4-(1-Methyl-1H-Pyrazol-5-Yl)-2,5-Dioxoimidazolidin-4-Yl]Methyl}-2-[6-(Trifluoromethyl)Pyridin-3-Yl]Benzamide]
37 µM	O=C1NC(=O)C(CNC(=O)c2ccc(F)cc2-c2ccc(C(F)(F)F)cc2)(C23CC(F)(C2)C3)N1 (single isomer, unassigned; ent-5) [Example 294, Ent-5-Fluoro-N-{[4-(3-Fluorobicyclo[1.1.1]Pentan-1-Yl)-2,5-Dioxoimidazolidin-4-Yl]Methyl}-4′-(Trifluoromethyl)[Biphenyl]-2-Carboxamide]

Same assay, conditions: ADAMTS4 (R&D 4307-AD) 50 nM, substrate Dabcyl-[…]-Glu(Edans)-NH2 1 μM, 120 min, 32° C.

SMILES	IC50
Cc1scnc1C1(CNC(=O)c2ccc(F)cc2-c2ccc(C(F)(F)F)cc2)NC(=O)NC1=O (single isomer, unassigned; ent-5) [Example 176, Ent-5-Fluoro-N-{[4-(5-Methyl-1,3-Thiazol-4-Yl)-2,5-Dioxoimidazolidin-4-Yl]Methyl}-4′-(Trifluoromethyl)[Biphenyl]-2-Carboxamide]	4.13 µM
